No end group written: not given here.
Molecular target: T1, GPR7 (Homo sapiens, UniProt P48145)
T1 sequence (P48145 1-328): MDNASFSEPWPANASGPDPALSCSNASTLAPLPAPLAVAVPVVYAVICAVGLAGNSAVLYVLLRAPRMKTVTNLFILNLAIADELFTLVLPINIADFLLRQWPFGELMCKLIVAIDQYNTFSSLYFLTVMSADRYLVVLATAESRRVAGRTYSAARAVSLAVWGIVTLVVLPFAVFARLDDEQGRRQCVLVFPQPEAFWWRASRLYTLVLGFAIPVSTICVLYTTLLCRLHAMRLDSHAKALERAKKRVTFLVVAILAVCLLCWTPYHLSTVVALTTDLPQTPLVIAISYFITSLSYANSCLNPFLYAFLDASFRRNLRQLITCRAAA
Assay: Test on binding inhibition of various peptides against human GPR7-expressed CHO cell membrane fraction
Design: The synthetic primers were constructed so as to amplify the gene in the region to be translated to its receptor protein; expressed in transfected cells; host or cells: CHO cells, membrane fraction
Conditions: iodine-labeled hGPR7L-23; human GPR7-expressed CHO cell membrane fraction 1 μg/well; room temperature 1.5 hour
Description: A mixture of 20 μl of hGPR7L-23 (SEQ ID NO:1) (0.1 mM or 1 mM), 20 μl of lactoperoxidase (Sigma; prepared using 10 μg/ml and 0.1M HEPES-NaOH pH7.0), 20 μl of Idoine-125 (manufactured by Amersham, MS-30, 74 MBq), 20 μl of 0.005% hydrogen peroxide (manufactured by Wako Pure Chemical Industries, Ltd.) was allowed to stand at room temperature for 20 to 30 minutes. Then, 600 μl of 0.1% TFA was added to the mixture. The mixture was applied to reverse phase HPLC for separation and the peaks of the two'labeled products were fractionated in a tube charged with 1 mL of DMSO. Immediately, the fraction was stored on ice and an aliquot was provided for measurement of the radioactivity with a γ-counter. The remaining preparation was dispensed and stored at −30° C.
Human GPR7-expressed CHO cells were cultured in a flask. The flask was washed with 5 mM EDTA/PBS to strip the cells off. The cells were stripped off with 5 mM EDTA/PBS and centrifuged for recovery. The recovered cells were suspended in 25 mL of a buffer for preparing membrane fraction (50 mM Tris-HCl, pH7.5, 5 mM EDTA, 0.1% bovine serum albumin (manufactured by Sigma), 0.5 mM PMSF (manufactured by Wako Pure Chemical Industries, Ltd.), 20 μg/mL leupeptin (manufactured by Peptide Research Institute), 0.1 μg/mL pepstatin A (manufactured by Peptide Research Institute) and 4 μg/mL E-64 (manufactured by Peptide Research Institute)), followed by homogenization on ice using a polytron (12,000 rpm, 15 seconds×3 times). The homogenate was centrifuged at 4° C. under 1,000 g for 10 minutes with a high speed cooling centrifuge to recover the supernatant. […] The pellets were recovered and suspended in a small quantity of the buffer for preparing membrane fractions. […]
Using the assay buffer, the human GPR7-expressed CHO cell membrane fraction was diluted in a final concentration of 1 μg/well and iodine-labeled hGPR7L-23 (SEQ ID NO:1) was diluted in a final concentration of […]. […] After 50 μl of a liquid scintillator was dispensed thereto, the radioactivity was counted on a Top Count (Packard) and the data was analyzed in triplet (FIG. 33). […]

WYKPTAGQGYYSVGRAAGLLSGFHRSPYA [Trp1-bovine GPR7L(29)]
IC50: 0.31 nM

— patent US7268212B2, “Ligand of G protein-coupled receptor protein and DNA thereof” (Takeda Pharmaceutical Company Limited, priority 2001, dated 2007)
